Source: patent US9399646B2 (Genentech, Inc., priority 2010, dated 2016)

Legend:
[1] = test system: MCF-7 cells; experiment: Breast cancer cell viability assay (CellTiter-Glo, 5 days); format: cell-based; conditions: 5 days' compound exposure; for IC50: Homo sapiens, MCF7, 120 h
Protocol: MCF-7 cells were adjusted to a concentration of 20,000 cells per mL in RPMI containing 10% FBS and 20 mM HEPES. 16 microliters of the cell suspension (320 cells) was added to each well of a 384 well plate, and the cells were incubated overnight to allow the cells to adhere. The following day an eleven point, serial semilog dilution of each compound was added to the cells in 16 μL at a final concentration ranging from 0.3-0.000003 μM. After 5 days' compound exposure, 16 μL of CellTiter-GLo (Promega, Madison Wis.) was added to the cells the relative luminescence units (RLUs) of each well was determined CellTiter-Glo added to 32 μL of medium without cells was used to obtain a background value. The Percent viability of each sample was determined as follows: (RLU sample-RLU background/RLU untreated cells-RLU background)×100=% viability.

[2] = biological target: T1, ER-α in MCF-7 cells (Homo sapiens, UniProt P03372); experiment: Breast cancer cell ER-α in cell western assay (SP1); format: cell-based; parameters: endogenous in cells; host or cells: MCF-7; conditions: 4 or 24 hr post compound addition; for Emax: MCF7, SP1 antibody, read-out: ER-α In Cell Western Assay (SP1) Max Response; for DC50: SP1 antibody, read-out: ER-α In Cell Western Assay (SP1) IC50
T1 sequence (P03372 1-595): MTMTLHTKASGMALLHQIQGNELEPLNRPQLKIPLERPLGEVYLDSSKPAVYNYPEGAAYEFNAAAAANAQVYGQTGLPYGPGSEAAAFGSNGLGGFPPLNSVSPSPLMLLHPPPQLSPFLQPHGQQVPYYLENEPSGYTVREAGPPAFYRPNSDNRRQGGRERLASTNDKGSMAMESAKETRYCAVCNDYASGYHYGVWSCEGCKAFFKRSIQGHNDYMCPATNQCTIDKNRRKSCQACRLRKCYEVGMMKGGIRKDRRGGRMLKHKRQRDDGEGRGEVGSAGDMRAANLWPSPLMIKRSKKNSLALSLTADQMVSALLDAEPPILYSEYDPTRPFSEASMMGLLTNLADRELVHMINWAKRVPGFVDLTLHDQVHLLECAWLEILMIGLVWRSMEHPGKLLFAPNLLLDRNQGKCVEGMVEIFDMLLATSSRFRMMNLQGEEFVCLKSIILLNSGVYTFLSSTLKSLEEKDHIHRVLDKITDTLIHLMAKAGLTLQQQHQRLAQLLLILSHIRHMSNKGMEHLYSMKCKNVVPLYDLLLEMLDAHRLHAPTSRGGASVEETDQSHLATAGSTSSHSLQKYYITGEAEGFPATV
Protocol: MCF-7 cells were adjusted to a concentration of 200,000 cells per mL in RPMI containing 10% charcoal-stripped FBS and 20 mM HEPES. 16 microliters of the cell suspension (3200 cells) was added to each well of a poly-D-lysine 384 well plate, and the cells were incubated overnight to allow the cells to adhere. The following day an eleven point, serial semilog dilution of each compound was added to the cells in 16 μL at a final concentration ranging from 0.3-0.000003 μM. At 4 or 24 hr post compound addition, the cells were fixed (10% formalin in PBS) for 20 minutes. Cells were permeablized in PBS 0.1% Triton and blocked with LICOR blocking buffer (50 μl/well, 90°). The wells were then incubated overnight at 4° C. with SP1 rabbit monoclonal Ab (Thermo Scientific) diluted 1:1000 in LICOR blocking buffer/0.1% Tween-20. Wells which were treated with blocking buffer with Tween but no antibody were used as a background control. Wells were washed with 0.1% Tween-20/PBS and then incubated in goat anti-rabbit IRDye™ 800CW (LICOR Inc.; 1:1000) and DRAQ5 DNA dye (1:2000 for 2 mM stock) diluted in LICOR blocking buffer containing 0.1% Tween-20 and 0.01% SDS for 60 minutes. Cells were washed (50 μl/well, 5′ each) in 0.1% Tween-20/PBS. Plates were scanned on a LICOR Odyssey infrared imaging system. Integrated intensities in the 800 nm channel and 700 nm channel were measured to determine levels of ER and DNA respectively. Percent ER levels were determined as follows: (Integrated intensity 800 nm sample/integrated intensity 700 nm sample)/(Integrated intensity 800 nm untreated cells/integrated intensity 700 nm untreated cells)×100=% ER levels.

SMILES	IC50 [1]	Emax [2]	DC50 [2]	MCF7 Viability Assay Max Response [1]
O=C(O)/C=C/c1ccc(/C(=C(\c2ccccc2)C2CC2)c2cccc3[nH]ncc23)cc1 [Compound 70, (E)-3-(4-((E)-2-Cyclopropyl-1-(1H-indazol-4-yl)-2-phenylvinyl)phenyl)acrylic acid]	≤ 100 nM	≥ 40%	≤ 100 nM	++ (++ = a single % value ≧ 40%)
CC/C(=C(/c1ccc(/C=C/C(=O)O)cc1)c1ccc2[nH]nnc2c1)c1ccc(F)cc1Cl [Compound 72, (E)-3-(4-((E)-1-(1H-Benzo[d][1,2,3]triazol-5-yl)-2-(2-chloro-4-fluorophenyl)but-1-en-1-yl)phenyl)acrylic acid]	≤ 100 nM	≥ 40%	≤ 100 nM	++ (++ = a single % value ≧ 40%)
CC/C(=C(/c1ccc(/C=C/C(=O)O)cc1)c1ccc2[nH]cnc2c1)c1ccccc1 [Compound 83, (E)-3-(4-((E)-1-(1H-Benzo[d]imidazol-5-yl)-2-phenylbut-1-en-1-yl)phenyl)acrylic acid]	> 100 nM	≥ 40%		++ (++ = a single % value ≧ 40%)
CC/C(=C(/c1ccc(/C=C/C(=O)O)cc1)c1cccc2[nH]nnc12)c1ccc(F)cc1Cl [Compound 89, (E)-3-(4-((E)-1-(1H-Benzo[d][1,2,3]triazol-4-yl)-2-(2-chloro-4-fluorophenyl)but-1-en-1-yl)phenyl)acrylic acid]	≤ 100 nM	≥ 40%	≤ 100 nM	++ (++ = a single % value ≧ 40%)

Now from value to molecule, other results behind:

IC50 [1]	Emax [2]	DC50 [2]	SMILES	MCF7 Viability Assay Max Response [1]
≤ 100 nM	≥ 40%	≤ 100 nM	O=C(O)/C=C/c1ccc(/C(=C(\c2ccccc2Cl)C2CC2)c2cccc3[nH]ncc23)cc1 [Compound 71, (E)-3-(4-((E)-2-(2-Chlorophenyl)-2-cyclopropyl-1-(1H-indazol-4-yl)vinyl)phenyl)acrylic acid]	++ (++ = a single % value ≧ 40%)
≤ 100 nM	≥ 40%	≤ 100 nM	O=C(O)/C=C/c1ccc(/C(=C(\c2ccc(F)cc2Cl)C2CC2)c2cccc3[nH]ncc23)cc1 [Compound 73, (E)-3-(4-((E)-2-(2-Chloro-4-fluorophenyl)-2-cyclopropyl-1-(1H-indazol-4-yl)vinyl)phenyl)acrylic acid]	++ (++ = a single % value ≧ 40%)
> 100 nM	≥ 40%		CC/C(=C(/c1ccc(/C=C/C(=O)O)cc1)c1ccc2[nH]c(=O)sc2c1)c1ccccc1 [Compound 75, (E)-3-(4-((E)-1-(2-Oxo-2,3-dihydrobenzo[d]thiazol-6-yl)-2-phenylbut-1-en-1-yl)phenyl)acrylic acid]	++ (++ = a single % value ≧ 40%)
> 100 nM	≥ 40%	> 100 nM	CC/C(=C(/c1ccc(/C=C/C(=O)O)cc1)c1cc2cn[nH]c2cn1)c1ccccc1 [Compound 81, (E)-3-(4-((E)-2-Phenyl-1-(1H-pyrazolo[3,4-c]pyridin-5-yl)but-1-en-1-yl)phenyl)acrylic acid]	++ (++ = a single % value ≧ 40%)
≤ 100 nM	≥ 40%	≤ 100 nM	CC/C(=C(/c1ccc(/C=C/C(=O)O)cc1)c1cc(F)cc2[nH]ncc12)c1ccccc1 [Compound 86, (E)-3-(4-((E)-1-(6-Fluoro-1H-indazol-4-yl)-2-phenylbut-1-en-1-yl)phenyl)acrylic acid]	++ (++ = a single % value ≧ 40%)
> 100 nM	≥ 40%	> 100 nM	CC/C(=C(/c1ccc(/C=C/C(=O)O)cc1)c1cccc2[nH]nnc12)c1ccccc1 [Compound 88, (E)-3-(4-((E)-1-(1H-Benzo[d][1,2,3]triazol-4-yl)-2-phenylbut-1-en-1-yl)phenyl)acrylic acid]	++ (++ = a single % value ≧ 40%)
